The record followed here is ChEMBL document CHEMBL1136223, “Reversed hydroxamate-bearing thermolysin inhibitors mimic a high-energy intermediate along the enzyme-catalyzed proteolytic reaction pathway” (Bioorg Med Chem Lett, 2003).

Molecules are shown by their SMILES.

Assay [1] concerns the target T1, Thermolysin (Bacillus thermoproteolyticus, UniProt P00800).
T1 sequence (P00800 whole entry): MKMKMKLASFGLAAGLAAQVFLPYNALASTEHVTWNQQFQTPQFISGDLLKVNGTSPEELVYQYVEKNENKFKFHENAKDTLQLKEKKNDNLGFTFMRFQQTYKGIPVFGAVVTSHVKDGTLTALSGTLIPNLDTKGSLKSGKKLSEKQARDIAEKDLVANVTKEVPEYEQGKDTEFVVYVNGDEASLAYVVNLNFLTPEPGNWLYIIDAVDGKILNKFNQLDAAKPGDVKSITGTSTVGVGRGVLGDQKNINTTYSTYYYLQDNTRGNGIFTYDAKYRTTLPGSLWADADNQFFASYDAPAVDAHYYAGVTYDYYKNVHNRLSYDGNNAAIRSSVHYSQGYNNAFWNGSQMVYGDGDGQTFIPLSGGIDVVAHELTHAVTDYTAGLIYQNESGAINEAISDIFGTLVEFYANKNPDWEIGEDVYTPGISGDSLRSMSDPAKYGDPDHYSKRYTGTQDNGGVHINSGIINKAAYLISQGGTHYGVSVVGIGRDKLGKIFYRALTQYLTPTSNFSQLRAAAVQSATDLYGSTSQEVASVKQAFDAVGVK
Kind of assay: Inhibitory activity against thermolysin.

The target of assay [2] is T1, Thermolysin. The experiment in a line: Inhibitory activity against thermolysin using N-[3-(2-furyl)acryloyl]-Gly-l-leucineamide (FA-Gly-l-Leu-NH2) as substrate.
The nature of assay [3]: Ratio of Km to that of Kcat against thermolysin.

The Ki is the dissociation constant of the complex between target and ligand, obtained from inhibition or displacement. High values mean weaker binding, low ones tighter binding. As to `CC(C)C[C@H](CN(O)C=O)C(=O)NC(=O)CN`, the Ki on Thermolysin [1] came out at 10.9 µM; at Thermolysin [2] it was 14.7 µM. Further, in assay [3], the Km/Kcat worked out at 165 µM/s.

In the case of `CC(C)C[C@H](CN(O)C=O)C(=O)NC(=O)[C@@H](N)Cc1ccccc1`, the Ki amounted to 2.4 µM at Thermolysin [1] and 1.84 µM on Thermolysin [2]. The Km/Kcat in assay [3] came out at 20 µM/s.

`CC(C)C[C@H](CN(O)C=O)C(=O)NC(=O)[C@H](C)N`: the results for the Ki at Thermolysin [1] and at Thermolysin [2] were 10.6 µM and 2.49 µM, respectively. For the same compound, the Km/Kcat in assay [3] came to 13.6 µM/s.

With `CC(C)C[C@H](CN(O)C=O)C(=O)NC(=O)[C@@H](C)N`, the inhibition constant (Ki) at Thermolysin [1] worked out at 16.6 µM; at Thermolysin [2], 383 µM. In addition, in assay [3], the Km/Kcat came out at 3200 µM/s.

Regarding `CC(C)C[C@H](CN(O)C=O)C(N)=O`, the Ki was 20.6 µM on Thermolysin [1] and 52.8 µM at Thermolysin [2]. In assay [3], the Km/Kcat turned out to be 196 µM/s.
